Assay results from patent US20140088102A1, “(ALPHA-SUBSTITUTED CYCLOALKYLAMINO AND HETEROCYCLYLAMINO) PYRIMIDINYL AND 1,3,5-TRIAZINYL BENZIMIDAZOLES, PHARMACEUTICAL COMPOSITIONS THEREOF, AND THEIR USE IN TREATING PROLIFERATIVE DISEASES” (MEI PHARMA, INC., priority 2011, published 2014).

Key:
Format in all cases: biochemical
p110α = target: T1, p110α (Homo sapiens, UniProt P42336); experiment: Luciferase-based luminescence assay (Kinase GLO), PI3K alpha; conditions: 1.65 nM enzyme, 50 μM PIP2, 25 μM ATP, 1 hour
T1 construct: purchased Invitrogen Corp., Carlsbad, Calif., USA
Description: (§1) PI3K catalyzes the conversion of phosphatidylinositol-4,5-bisphosphate (PIP2) and ATP to phosphatidylinositol-3,4,5-trisphosphate (PIP3) and ADP. PI3K enzymatic activity was determined by measuring the amount of ATP consumed following the kinase reaction using a luciferase-based luminescence assay (Kinase GLO®, Promega Corp., Madison, Wis., USA) in a reaction buffer. The reaction buffer contained 50 mM HEPES, pH 7.5, 3 mM MgCl2, 1 mM EGTA, 100 mM NaCl, 0.03% CHAPS, and 2 mM DTT. Compounds for testing were dissolved and serially diluted in 100% DMSO (total of 10 concentrations), and then diluted 1:25 in the reaction buffer. PI3K enzyme solutions were prepared by diluting PI3K alpha (Invitrogen Corp., Carlsbad, Calif., USA) or PI3K delta (Millipore, Billerica, Mass., USA) in the reaction buffer to 4× the final assay concentration. The final concentrations of enzymes were 1.65 nM and 6.86 nM for PI3K alpha and PI3K delta, respectively. A substrate solution was prepared by mixing PIP2 and ATP in reaction buffer at 2× the final assay concentration. The final concentrations were 50 μM and 25 μM for PIP2 and ATP, respectively. To individual wells of white low volume 384-well assay plates were added 2.5 μl each of the compound and kinase mixtures, followed by shaking. The reactions were started by adding 5 μl of substrate mixture per well and shaking. The assay plates were covered and reactions were allowed to proceed for 1 hour (PI3K alpha) or 2 hours (PI3K delta), after which 10 μl of Kinase GLO® reagent was added. The plates were briefly centrifuged and incubated for 10 minutes, after which luminescence was measured using a FlexStation plate reader (Molecular Devices, Sunnyvale, Calif., USA). IC50 values were determined by curve fitting using Graphpad Prism software (Graphpad Software, La Jolla, Calif., USA).

p110δ = target: T2, p110δ (Homo sapiens, UniProt O00329); experiment: Luciferase-based luminescence assay (Kinase GLO), PI3K delta; conditions: for IC50: 6.86 nM enzyme, 50 μM PIP2, 25 μM ATP, 2 hours; for α/δ ratio: ratio of IC50 against PI3Kα over IC50 against PI3Kδ
T2 construct: purchased Millipore, Billerica, Mass., USA
Description: as §1

p110β = p110β (Homo sapiens, UniProt P42338); experiment: Luciferase-based luminescence assay, p110β
p110γ = p110γ (Homo sapiens, UniProt P48736); experiment: Luciferase-based luminescence assay, p110γ
mTOR = mTOR (Homo sapiens, UniProt P42345); experiment: Luciferase-based luminescence assay, mTOR

T2 sequence (O00329 whole entry): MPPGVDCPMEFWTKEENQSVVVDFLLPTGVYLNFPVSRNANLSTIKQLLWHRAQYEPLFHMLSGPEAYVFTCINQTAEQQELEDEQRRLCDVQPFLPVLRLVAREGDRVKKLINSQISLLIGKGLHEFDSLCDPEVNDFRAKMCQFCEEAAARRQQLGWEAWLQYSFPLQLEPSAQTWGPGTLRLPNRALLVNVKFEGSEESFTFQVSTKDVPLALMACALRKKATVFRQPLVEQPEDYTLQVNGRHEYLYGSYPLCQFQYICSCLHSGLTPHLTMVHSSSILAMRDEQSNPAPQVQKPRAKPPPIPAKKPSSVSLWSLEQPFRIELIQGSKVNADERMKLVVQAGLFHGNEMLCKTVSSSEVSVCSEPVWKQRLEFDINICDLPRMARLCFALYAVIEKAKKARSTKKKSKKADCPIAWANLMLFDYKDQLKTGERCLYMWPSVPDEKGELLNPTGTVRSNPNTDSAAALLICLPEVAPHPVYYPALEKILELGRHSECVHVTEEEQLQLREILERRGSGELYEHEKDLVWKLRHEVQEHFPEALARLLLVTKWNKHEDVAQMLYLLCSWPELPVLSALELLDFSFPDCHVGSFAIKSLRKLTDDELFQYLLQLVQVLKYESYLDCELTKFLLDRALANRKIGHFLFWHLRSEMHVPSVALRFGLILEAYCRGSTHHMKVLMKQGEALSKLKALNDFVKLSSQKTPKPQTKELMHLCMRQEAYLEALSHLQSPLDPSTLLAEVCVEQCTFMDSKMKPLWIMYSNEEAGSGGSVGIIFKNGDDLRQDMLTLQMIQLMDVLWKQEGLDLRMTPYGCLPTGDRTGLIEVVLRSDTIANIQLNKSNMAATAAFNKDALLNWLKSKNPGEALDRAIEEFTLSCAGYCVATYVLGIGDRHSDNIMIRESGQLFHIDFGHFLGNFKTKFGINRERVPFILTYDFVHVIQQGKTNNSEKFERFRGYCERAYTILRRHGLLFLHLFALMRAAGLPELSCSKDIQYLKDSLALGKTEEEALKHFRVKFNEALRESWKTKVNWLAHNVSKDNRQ
T2 sequence (P27986 whole entry partner): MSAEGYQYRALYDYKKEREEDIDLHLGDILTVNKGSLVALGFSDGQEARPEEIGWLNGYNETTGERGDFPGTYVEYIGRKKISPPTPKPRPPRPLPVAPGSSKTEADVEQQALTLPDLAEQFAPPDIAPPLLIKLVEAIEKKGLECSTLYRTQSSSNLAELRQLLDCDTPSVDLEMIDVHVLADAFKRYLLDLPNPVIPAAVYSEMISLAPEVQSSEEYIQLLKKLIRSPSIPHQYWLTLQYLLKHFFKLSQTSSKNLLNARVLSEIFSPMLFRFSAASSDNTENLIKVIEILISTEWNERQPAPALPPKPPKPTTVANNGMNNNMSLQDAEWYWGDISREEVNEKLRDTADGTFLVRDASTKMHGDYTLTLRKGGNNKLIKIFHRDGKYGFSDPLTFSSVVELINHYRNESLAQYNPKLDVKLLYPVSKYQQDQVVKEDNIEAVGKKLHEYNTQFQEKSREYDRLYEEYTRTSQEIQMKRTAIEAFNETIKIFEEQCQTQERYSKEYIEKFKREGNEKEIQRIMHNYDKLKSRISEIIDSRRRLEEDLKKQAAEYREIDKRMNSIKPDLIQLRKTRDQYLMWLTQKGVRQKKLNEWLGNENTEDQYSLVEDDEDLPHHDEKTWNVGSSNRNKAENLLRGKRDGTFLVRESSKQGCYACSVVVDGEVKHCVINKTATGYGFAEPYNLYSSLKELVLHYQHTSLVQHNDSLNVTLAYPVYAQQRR
Sequence of p110γ (P48736 whole entry, species assumed): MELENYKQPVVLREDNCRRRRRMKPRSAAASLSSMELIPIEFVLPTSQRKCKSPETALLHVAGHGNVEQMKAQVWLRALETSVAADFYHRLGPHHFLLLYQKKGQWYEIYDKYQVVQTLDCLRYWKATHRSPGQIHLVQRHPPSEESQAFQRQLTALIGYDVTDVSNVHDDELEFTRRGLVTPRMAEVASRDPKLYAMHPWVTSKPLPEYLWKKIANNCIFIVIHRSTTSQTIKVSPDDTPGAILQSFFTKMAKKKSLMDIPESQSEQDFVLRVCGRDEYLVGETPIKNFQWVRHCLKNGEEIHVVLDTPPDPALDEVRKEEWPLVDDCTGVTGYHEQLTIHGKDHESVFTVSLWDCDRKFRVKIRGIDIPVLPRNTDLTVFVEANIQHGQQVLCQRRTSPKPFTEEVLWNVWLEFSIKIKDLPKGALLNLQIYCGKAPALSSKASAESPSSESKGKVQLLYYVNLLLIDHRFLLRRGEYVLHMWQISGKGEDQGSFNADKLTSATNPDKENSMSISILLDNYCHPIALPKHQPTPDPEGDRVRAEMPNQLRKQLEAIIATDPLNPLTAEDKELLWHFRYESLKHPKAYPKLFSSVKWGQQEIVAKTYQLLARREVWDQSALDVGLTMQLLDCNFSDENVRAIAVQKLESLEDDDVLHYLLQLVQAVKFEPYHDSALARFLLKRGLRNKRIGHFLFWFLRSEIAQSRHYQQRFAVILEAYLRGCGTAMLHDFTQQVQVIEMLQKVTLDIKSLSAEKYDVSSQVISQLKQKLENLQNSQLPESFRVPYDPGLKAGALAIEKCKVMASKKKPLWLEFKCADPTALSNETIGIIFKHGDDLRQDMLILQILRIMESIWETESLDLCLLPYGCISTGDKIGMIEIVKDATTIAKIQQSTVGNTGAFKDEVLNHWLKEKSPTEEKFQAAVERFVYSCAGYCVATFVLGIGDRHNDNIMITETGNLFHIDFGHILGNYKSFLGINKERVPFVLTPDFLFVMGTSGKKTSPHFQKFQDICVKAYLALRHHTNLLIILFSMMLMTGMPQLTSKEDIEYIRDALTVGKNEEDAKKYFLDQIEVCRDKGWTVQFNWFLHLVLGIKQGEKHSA
Sequence of p110β (P42338 whole entry, species assumed): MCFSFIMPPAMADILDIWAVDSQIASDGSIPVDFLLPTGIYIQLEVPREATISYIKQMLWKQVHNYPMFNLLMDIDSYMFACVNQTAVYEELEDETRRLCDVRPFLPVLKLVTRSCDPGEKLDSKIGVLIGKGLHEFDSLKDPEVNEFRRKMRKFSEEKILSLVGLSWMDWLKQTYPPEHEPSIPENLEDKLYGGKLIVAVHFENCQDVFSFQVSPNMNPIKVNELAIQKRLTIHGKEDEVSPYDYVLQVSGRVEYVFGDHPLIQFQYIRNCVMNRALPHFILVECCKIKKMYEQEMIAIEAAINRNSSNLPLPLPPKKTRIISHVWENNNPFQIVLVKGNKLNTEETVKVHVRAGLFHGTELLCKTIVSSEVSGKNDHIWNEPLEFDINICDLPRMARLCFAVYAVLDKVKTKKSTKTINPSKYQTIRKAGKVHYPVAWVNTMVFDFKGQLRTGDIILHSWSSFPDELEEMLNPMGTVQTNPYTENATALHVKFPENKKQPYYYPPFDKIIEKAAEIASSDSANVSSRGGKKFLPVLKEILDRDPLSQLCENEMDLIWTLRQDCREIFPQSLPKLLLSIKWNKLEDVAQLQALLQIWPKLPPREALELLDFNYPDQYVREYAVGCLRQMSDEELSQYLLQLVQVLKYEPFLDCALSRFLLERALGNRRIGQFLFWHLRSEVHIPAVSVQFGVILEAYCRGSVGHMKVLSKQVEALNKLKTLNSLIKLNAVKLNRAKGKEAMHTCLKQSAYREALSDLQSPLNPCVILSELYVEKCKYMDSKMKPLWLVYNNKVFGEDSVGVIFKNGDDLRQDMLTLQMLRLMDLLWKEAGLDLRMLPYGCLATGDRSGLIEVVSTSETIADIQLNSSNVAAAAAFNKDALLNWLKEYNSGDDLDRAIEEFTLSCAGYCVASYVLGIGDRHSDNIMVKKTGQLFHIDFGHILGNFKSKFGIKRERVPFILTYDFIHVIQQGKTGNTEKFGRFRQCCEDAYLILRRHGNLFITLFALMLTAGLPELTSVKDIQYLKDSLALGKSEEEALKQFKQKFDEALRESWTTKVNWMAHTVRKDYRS
Sequence of p110β (P27986 whole entry partner, species assumed): as the sequence (P27986 whole entry partner) above
T1 sequence (P42336 whole entry): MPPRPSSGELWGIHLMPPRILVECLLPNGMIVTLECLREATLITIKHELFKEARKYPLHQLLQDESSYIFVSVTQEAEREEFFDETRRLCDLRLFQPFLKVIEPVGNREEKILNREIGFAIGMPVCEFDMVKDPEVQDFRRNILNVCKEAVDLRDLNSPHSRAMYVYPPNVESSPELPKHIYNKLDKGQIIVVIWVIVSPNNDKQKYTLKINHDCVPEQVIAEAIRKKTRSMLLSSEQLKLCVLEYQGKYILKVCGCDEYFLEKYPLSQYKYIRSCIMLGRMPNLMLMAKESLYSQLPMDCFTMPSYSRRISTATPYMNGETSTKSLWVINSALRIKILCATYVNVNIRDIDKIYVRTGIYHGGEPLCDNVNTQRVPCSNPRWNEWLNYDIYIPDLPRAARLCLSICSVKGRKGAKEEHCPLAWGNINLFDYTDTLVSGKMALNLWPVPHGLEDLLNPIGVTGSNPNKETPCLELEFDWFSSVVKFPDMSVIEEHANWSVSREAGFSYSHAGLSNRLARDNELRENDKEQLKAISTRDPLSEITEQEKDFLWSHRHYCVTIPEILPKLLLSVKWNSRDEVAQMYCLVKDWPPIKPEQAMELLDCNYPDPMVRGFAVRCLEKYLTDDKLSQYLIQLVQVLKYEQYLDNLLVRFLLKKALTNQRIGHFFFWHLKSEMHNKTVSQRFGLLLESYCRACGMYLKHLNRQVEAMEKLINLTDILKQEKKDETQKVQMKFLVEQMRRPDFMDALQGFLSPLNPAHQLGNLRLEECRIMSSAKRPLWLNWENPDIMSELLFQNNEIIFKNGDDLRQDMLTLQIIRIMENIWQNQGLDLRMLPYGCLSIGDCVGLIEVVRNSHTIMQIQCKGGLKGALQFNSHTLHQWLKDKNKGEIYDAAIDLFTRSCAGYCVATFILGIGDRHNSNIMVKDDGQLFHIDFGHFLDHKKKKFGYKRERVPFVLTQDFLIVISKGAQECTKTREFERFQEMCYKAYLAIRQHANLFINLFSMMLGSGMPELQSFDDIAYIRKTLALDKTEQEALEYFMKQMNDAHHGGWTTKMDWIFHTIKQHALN
T1 sequence (P27986 whole entry partner): as the sequence (P27986 whole entry partner) above

Row | SMILES | IC50 (p110α) [nM] | IC50 (p110δ) [nM] | α/δ ratio (p110δ) | IC50 (p110β) [nM] | IC50 (p110γ) [nM] | IC50 (mTOR) [nM]
1 | FC(F)c1nc2ccccc2n1-c1nc(NCc2ccccc2)nc(N2CCOCC2)n1 [Ref. 1, N-benzyl-4-(2-(difluoromethyl)-1H-benzo[d]imidazol-1-yl)-6-morpholino-1,3,5-triazin-2-amine, reference compound] | 100 to 200 | 100 to 200 | D′ (D′ represents a ratio of no greater than 2) | – | – | –
2 | FC(F)c1nc2ccccc2n1-c1nc(NC2(c3ccccc3)CCCC2)nc(N2CCOCC2)n1 [Compound A3, 4-(2-(difluoromethyl)-1H-benzo[d]imidazol-1-yl)-6-morpholino-N-(1-phenylcyclopentyl)-1,3,5-triazin-2-amine] | > 500 | > 500 | A′ (A′ represents a ratio of greater than 8) | – | – | –
3 | FC(F)c1nc2ccccc2n1-c1nc(NC2(Cc3ccc(Br)cc3)CCCCC2)nc(N2CCOCC2)n1 [Compound A6, N-(1-(4-bromobenzyl)cyclohexyl)-4-(2-(difluoromethyl)-1H-benzo[d]imidazol-1-yl)-6-morpholino-1,3,5-triazin-2-amine] | > 500 | > 500 | B′ (B′ represents a ratio of no less than 4 but no greater than 8) | > 500 | > 500 | > 500
4 | FC(F)c1nc2ccccc2n1-c1nc(NC2(Cc3ccccc3)CCC2)nc(N2CCOCC2)n1 [Compound A11, 4-(2-(difluoromethyl)-1H-benzo[d]imidazol-1-yl)-N-(1-benzylcyclobutyl)-6-morpholino-1,3,5-triazin-2-amine] | > 500 | ≤ 100 | A′ (A′ represents a ratio of greater than 8) | ≤ 100 | 200 to 500 | > 500
5 | FC(F)c1nc2ccccc2n1-c1nc(NC2(Cc3ccccc3Cl)CC2)nc(N2CCOCC2)n1 [Compound A10, N-(1-(2-chlorobenzyl)cyclopropyl)-4-(2-(difluoromethyl)-1H-benzo[d]imidazol-1-yl)-6-morpholino-1,3,5-triazin-2-amine] | > 500 | 200 to 500 | A′ (A′ represents a ratio of greater than 8) | > 500 | > 500 | > 500
6 | FC(F)c1nc2ccccc2n1-c1nc(NC2(Cc3ccccc3)CCCC2)nc(N2CCOCC2)n1 [Compound A7, N-(1-benzylcyclopentyl)-4-(2-(difluoromethyl)-1H-benzo[d]imidazol-1-yl)-6-morpholino-1,3,5-triazin-2-amine] | > 500 | ≤ 100 | A′ (A′ represents a ratio of greater than 8) | 100 to 200 | 200 to 500 | > 500
7 | FC(F)c1nc2ccccc2n1-c1nc(NC2(c3ccccc3)CCCCC2)nc(N2CCOCC2)n1 [Compound A4, 4-(2-(difluoromethyl)-1H-benzo[d]imidazol-1-yl)-6-morpholino-N-(1-phenylcyclohexyl)-1,3,5-triazin-2-amine] | > 500 | 200 to 500 | A′ (A′ represents a ratio of greater than 8) | – | – | –
8 | Cc1ccccc1CC1(Nc2nc(N3CCOCC3)nc(-n3c(C(F)F)nc4ccccc43)n2)CC1 [Compound A8, 4-(2-(difluoromethyl)-1H-benzo[d]imidazol-1-yl)-N-(1-(2-methylbenzyl)cyclopropyl)-6-morpholino-1,3,5-triazin-2-amine] | > 500 | 100 to 200 | B′ (B′ represents a ratio of no less than 4 but no greater than 8) | > 500 | > 500 | > 500
9 | FC(F)c1nc2ccccc2n1-c1nc(NC2(Cc3ccccc3)CC2)nc(N2CCOCC2)n1 [Compound A5, N-(1-benzylcyclopropyl)-4-(2-(difluoromethyl)-1H-benzo[d]imidazol-1-yl)-6-morpholino-1,3,5-triazin-2-amine] | > 500 | ≤ 100 | A′ (A′ represents a ratio of greater than 8) | > 500 | > 500 | > 500
10 | FC(F)c1nc2ccccc2n1-c1nc(NC2(c3ccccc3)CC2)nc(N2CCOCC2)n1 [Compound A1, 4-(2-(difluoromethyl)-1H-benzo[d]imidazol-1-yl)-6-morpholino-N-(1-phenylcyclopropyl)-1,3,5-triazin-2-amine] | 200 to 500 | ≤ 100 | B′ (B′ represents a ratio of no less than 4 but no greater than 8) | – | – | –
